Measured values reported in PubChem BioAssay (NCI).
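These data come from cells grown in 96-well plates and exposed to compound for 48 hours at five concentrations. At the GI50, growth is halved. TGI: total growth inhibition.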

Experiments:
Assay in all cases: NCI tumour cell line growth inhibition, 48 h
SF-295 CNS = tested on: SF-295 CNS
SK-MEL-5 melanoma = tested on: SK-MEL-5 melanoma
786-0 renal = tested on: 786-0 renal
SN12C renal = tested on: SN12C renal
COLO 205 colon = tested on: COLO 205 colon
MDA-MB-231 breast = tested on: MDA-MB-231 breast
NCI-H522 lung = tested on: NCI-H522 lung
CAKI-1 renal = tested on: CAKI-1 renal
NCI-H460 lung = tested on: NCI-H460 lung
MDA-MB-435 = tested on: MDA-MB-435
OVCAR-5 ovarian = tested on: OVCAR-5 ovarian
SK-OV-3 ovarian = tested on: SK-OV-3 ovarian
HCT-116 colon = tested on: HCT-116 colon
HL-60(TB) leukemia = tested on: HL-60(TB) leukemia
OVCAR-8 ovarian = tested on: OVCAR-8 ovarian
SNB-19 CNS = tested on: SNB-19 CNS
SF-539 CNS = tested on: SF-539 CNS
MCF7 breast = tested on: MCF7 breast
K-562 leukemia = tested on: K-562 leukemia
IGROV1 ovarian = tested on: IGROV1 ovarian
PC-3 prostate = tested on: PC-3 prostate
UACC-257 melanoma = tested on: UACC-257 melanoma
HOP-62 NSCLC = tested on: HOP-62 NSCLC
KM12 colon = tested on: KM12 colon
NCI-H226 lung = tested on: NCI-H226 lung
TK-10 renal = tested on: TK-10 renal
A498 renal = tested on: A498 renal
HCC-2998 colon = tested on: HCC-2998 colon
HT29 colon = tested on: HT29 colon
NCI-H23 lung = tested on: NCI-H23 lung
HS 578T breast = tested on: HS 578T breast
SK-MEL-28 melanoma = tested on: SK-MEL-28 melanoma
BT-549 breast = tested on: BT-549 breast
T-47D breast = tested on: T-47D breast
M14 melanoma = tested on: M14 melanoma
SW-620 colon = tested on: SW-620 colon
SR leukemia = tested on: SR leukemia
SF-268 CNS = tested on: SF-268 CNS
EKVX NSCLC = tested on: EKVX NSCLC
RXF 393 renal = tested on: RXF 393 renal
HOP-92 NSCLC = tested on: HOP-92 NSCLC
LOX IMVI melanoma = tested on: LOX IMVI melanoma
HCT-15 colon = tested on: HCT-15 colon
MALME-3M melanoma = tested on: MALME-3M melanoma
U251 CNS = tested on: U251 CNS
SNB-75 CNS = tested on: SNB-75 CNS
ACHN renal = tested on: ACHN renal
RPMI-8226 leukemia = tested on: RPMI-8226 leukemia
CCRF-CEM leukemia = tested on: CCRF-CEM leukemia
UACC-62 melanoma = tested on: UACC-62 melanoma
OVCAR-4 ovarian = tested on: OVCAR-4 ovarian
A549 NSCLC = tested on: A549 NSCLC
OVCAR-3 ovarian = tested on: OVCAR-3 ovarian
UO-31 renal = tested on: UO-31 renal
NCI/ADR-RES ovarian = tested on: NCI/ADR-RES ovarian
DU-145 prostate = tested on: DU-145 prostate
SK-MEL-2 melanoma = tested on: SK-MEL-2 melanoma
MOLT-4 leukemia = tested on: MOLT-4 leukemia

SMILES: O=C1/C(=C/c2ccc(O)cc2)CCC1CNc1ccccc1 (configuration not stated)
- TGI (SF-295 CNS): 29.5 µM
- TGI (SK-MEL-5 melanoma): 30.6 µM
- TGI (786-0 renal): 18.9 µM
- TGI (SN12C renal): 29.2 µM
- TGI (COLO 205 colon): 16.1 µM
- TGI (MDA-MB-231 breast): 30.9 µM
- TGI (NCI-H522 lung): 6.95 µM
- TGI (CAKI-1 renal): 26.5 µM
- TGI (NCI-H460 lung): 50.9 µM
- TGI (MDA-MB-435): 36.2 µM
- TGI (OVCAR-5 ovarian): 31.6 µM
- TGI (SK-OV-3 ovarian): 43.9 µM
- TGI (HCT-116 colon): 17.5 µM
- TGI (HL-60(TB) leukemia): 4.91 µM
- TGI (OVCAR-8 ovarian): 29.9 µM
- TGI (SNB-19 CNS): 30.1 µM
- TGI (SF-539 CNS): 29.8 µM
- TGI (MCF7 breast): 10.2 µM
- TGI (K-562 leukemia): 4 µM
- TGI (IGROV1 ovarian): 25.3 µM
- TGI (PC-3 prostate): 23.7 µM
- TGI (UACC-257 melanoma): 30.6 µM
- TGI (HOP-62 NSCLC): 36.3 µM
- TGI (KM12 colon): 22.7 µM
- TGI (NCI-H226 lung): 37.9 µM
- TGI (TK-10 renal): 24.3 µM
- TGI (A498 renal): 31.9 µM
- TGI (HCC-2998 colon): 35.8 µM
- TGI (HT29 colon): 27.7 µM
- TGI (NCI-H23 lung): 30.4 µM
- TGI (HS 578T breast): 57.6 µM
- TGI (SK-MEL-28 melanoma): 29.9 µM
- TGI (BT-549 breast): 27.6 µM
- TGI (T-47D breast): 55.2 µM
- TGI (M14 melanoma): 28.1 µM
- TGI (SW-620 colon): 7.11 µM
- TGI (SR leukemia): 4.22 µM
- TGI (SF-268 CNS): 28.2 µM
- TGI (EKVX NSCLC): 33.6 µM
- TGI (RXF 393 renal): 35.9 µM
- TGI (HOP-92 NSCLC): 27.9 µM
- TGI (LOX IMVI melanoma): 22.2 µM
- TGI (HCT-15 colon): 13.9 µM
- TGI (MALME-3M melanoma): 30.6 µM
- TGI (U251 CNS): 30.3 µM
- TGI (SNB-75 CNS): 41.2 µM
- TGI (ACHN renal): 24.8 µM
- TGI (RPMI-8226 leukemia): 5.12 µM
- TGI (CCRF-CEM leukemia): 4.54 µM
- TGI (UACC-62 melanoma): 28.7 µM
- TGI (OVCAR-4 ovarian): 33.3 µM
- TGI (A549 NSCLC): 34.8 µM
- TGI (OVCAR-3 ovarian): 28.4 µM
- TGI (UO-31 renal): 29 µM
- TGI (NCI/ADR-RES ovarian): 37.1 µM
- TGI (DU-145 prostate): 16.9 µM

SMILES: N=C(N)c1ccc(-c2ccc(-c3cc(Cl)cc(Cl)c3)o2)o1
- GI50 (CAKI-1 renal): 1.7 µM
- TGI (CAKI-1 renal): 3.11 µM
- GI50 (MDA-MB-435): 1.61 µM
- TGI (MDA-MB-435): 2.99 µM
- GI50 (SK-OV-3 ovarian): 1.8 µM
- TGI (SK-OV-3 ovarian): 3.34 µM
- GI50 (HL-60(TB) leukemia): 1.62 µM
- TGI (HL-60(TB) leukemia): 3.49 µM
- GI50 (KM12 colon): 1.65 µM
- TGI (KM12 colon): 3.18 µM
- GI50 (TK-10 renal): 1.85 µM
- TGI (TK-10 renal): 3.39 µM
- GI50 (HS 578T breast): 2.22 µM
- TGI (HS 578T breast): 5.02 µM
- GI50 (RPMI-8226 leukemia): 2.13 µM
- TGI (RPMI-8226 leukemia): 4.63 µM
- GI50 (OVCAR-3 ovarian): 1.7 µM
- TGI (OVCAR-3 ovarian): 3.14 µM
- GI50 (DU-145 prostate): 1.78 µM
- TGI (DU-145 prostate): 3.24 µM

SMILES: NNC(=O)Cn1ccnn1
- TGI (SF-295 CNS): > 100 µM
- TGI (SK-MEL-5 melanoma): > 100 µM
- TGI (786-0 renal): > 100 µM
- TGI (SN12C renal): > 100 µM
- TGI (COLO 205 colon): > 100 µM
- TGI (MDA-MB-231 breast): > 100 µM
- TGI (NCI-H522 lung): > 100 µM
- TGI (CAKI-1 renal): > 100 µM
- TGI (NCI-H460 lung): > 100 µM
- TGI (MDA-MB-435): > 100 µM
- TGI (OVCAR-5 ovarian): > 100 µM
- TGI (HL-60(TB) leukemia): > 100 µM
- TGI (OVCAR-8 ovarian): > 100 µM
- TGI (SNB-19 CNS): > 100 µM
- TGI (MCF7 breast): > 100 µM
- TGI (K-562 leukemia): > 100 µM
- TGI (SK-MEL-2 melanoma): > 100 µM
- TGI (IGROV1 ovarian): > 100 µM
- TGI (PC-3 prostate): > 100 µM
- TGI (UACC-257 melanoma): > 100 µM
- TGI (HOP-62 NSCLC): > 100 µM
- TGI (KM12 colon): > 100 µM
- TGI (TK-10 renal): > 100 µM
- TGI (HCC-2998 colon): > 100 µM
- TGI (HT29 colon): > 100 µM
- TGI (NCI-H23 lung): > 100 µM
- TGI (SK-MEL-28 melanoma): > 100 µM
- TGI (BT-549 breast): > 100 µM
- TGI (M14 melanoma): > 100 µM
- TGI (SW-620 colon): > 100 µM
- TGI (SR leukemia): > 100 µM
- TGI (SF-268 CNS): > 100 µM
- TGI (EKVX NSCLC): > 100 µM
- TGI (MOLT-4 leukemia): > 100 µM
- TGI (HOP-92 NSCLC): > 100 µM
- TGI (LOX IMVI melanoma): > 100 µM
- TGI (HCT-15 colon): > 100 µM
- TGI (MALME-3M melanoma): > 100 µM
- TGI (U251 CNS): > 100 µM
- TGI (SNB-75 CNS): > 100 µM
- TGI (ACHN renal): > 100 µM
- TGI (RPMI-8226 leukemia): > 100 µM
- TGI (CCRF-CEM leukemia): > 100 µM
- TGI (A549 NSCLC): > 100 µM
- TGI (NCI/ADR-RES ovarian): > 100 µM
- TGI (DU-145 prostate): > 100 µM
